These are literature values, as cited in patent US10201174B2, “Process for reducing contaminating Michael acceptor levels in oxycodone and other compositions” (Controlled Chemicals, Inc., priority 2005, dated 2019).

The conditions of the series: thiol group ionisation, aqueous.

Molecules are shown by their SMILES.

Consider `O=C(O)c1cc(S)ccc1[N+](=O)[O-]` [5-mercapto-2-nitro-benzoic acid], for which the “pKSH / pK of the thiol-containing compound” value is recorded as 4.8.
For the compound `O=C([O-])CS.[Na+]` [sodium thioglycolate], the “pKSH / pK of the thiol-containing compound” value was 10.3.
